Results: ChEMBL document CHEMBL1157512, “Anti-HIV-1 protease activity of lanostane triterpenes from the vietnamese mushroom Ganoderma colossum” (J Nat Prod, 2008)

Biological target: Protease (Human immunodeficiency virus 1, UniProt Q9YQ12)
Assay: Inhibition of recombinant HIV1 protease

Chain of Protease (Q9YQ12 whole entry): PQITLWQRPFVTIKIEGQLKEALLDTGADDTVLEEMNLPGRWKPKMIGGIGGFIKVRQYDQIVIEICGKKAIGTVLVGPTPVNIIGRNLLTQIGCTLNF

Compound	IC50 [µM]
CC(=O)O[C@@H]1C[C@H]([C@H](C)[C@H]2CC=C(C)C(=O)O2)[C@@]2(C)CCC3=C(CC[C@@H]4C(=C3)C=CC(=O)OC4(C)C)[C@]12C [COLOSSOLACTONE E]	15.3
CC(=O)O[C@@H]1C[C@H]([C@H](C)[C@H]2CC=C(C)C(=O)O2)[C@@]2(C)CCC3=C(CC[C@]4(O)C(=C3)C=CC(=O)OC4(C)C)[C@]12C [COLOSSOLACTONE G]	9.28
CC(=O)O[C@@H]1C[C@H]([C@H](C)[C@@H]2OC(=O)C(C)=C[C@H]2O)[C@@]2(C)CCC3=C(CC[C@@H]4C(=C3)C=CC(=O)OC4(C)C)[C@]12C [COLOSSOLACTONE VIII]	58.3
COC(=O)CC[C@]1(COC(C)=O)C2=C(CC[C@H]1C(C)(C)O)[C@]1(C)CC[C@H]([C@H](C)[C@H]3CC=C(C)C(=O)O3)[C@@]1(C)CC2 [COLOSSOLACTONE VII]	24.7
COC(=O)CC[C@]1(COC(C)=O)C2=CC[C@]3(C)[C@@H]([C@H](C)[C@@H](C/C=C(/C)C(=O)O)OC(C)=O)CC[C@@]3(C)C2=CC[C@H]1C(C)(C)O [COLOSSOLACTONE VI]	> 162
CC1=CC[C@H]([C@@H](C)[C@H]2CC[C@@]3(C)C4=C(C=C5C=CC(=O)OC(C)(C)[C@@H]5CC4)CC[C@]23C)OC1=O [SCHISANLACTONE A]	10.8

More lines, now with the values ahead:

IC50 [µM]	Compound
75.5	CC(=O)OC[C@]12CC[C@H](O)C(C)(C)[C@@H]1CCC1=C2CC[C@]2(C)[C@@H]([C@H](C)C(O)C/C=C(/C)CO)CC[C@@]12C (stereo partly drawn) [COLOSSOLACTONE A]
14.5	COC(=O)CC[C@]1(COC(C)=O)C2=C(CC[C@H]1C(C)(C)O)[C@]1(C)CC[C@H]([C@H](C)[C@@H](C/C=C(/C)C(=O)O)OC(C)=O)[C@@]1(C)CC2 [COLOSSOLACTONE V]
